Assay results taken from patent publication US20180021307A1, “Combination Treatment” (UCB Biopharma SPRL, priority 2015, published 2018).

Tests used:
[1] = system: 6 Hz-induced seizures; experiment: 6 Hz seizure test in mice with isobolographic analysis; assay type: in vivo; settings: for ED50add ± SEM: drug administered alone, i.p., 30 min before the test, NMRI mice; for anticonvulsant effects against 6 Hz seizure: mice
Method: According and Deckers et al. (2000) an isobolographic method used and evaluate interactions among AEDs is considered and be the optimal method for detecting synergy, additivity or antagonism among AEDs in animal models of epilepsy, such as the 6 Hz seizure model in mice. For isobolographic analysis, the experimental (EDmix) and theoretical additive (EDadd) ED50 values are determined from the dose-response curves of combined drugs. ED50 is defined as a dose of a drug protecting 50% of the animals against 6 Hz-induced seizures. ED50mix is an experimentally determined total dose of the mixture of two component drugs, which were administered in the fixed-ratio combination sufficient for a 50% protective effect. Conversely, ED50add represents a total additive dose of two drugs (calculated from the line of additivity), theoretically providing 50% protection against seizures.
The term “interaction index a” refers and the ratio of ED50mix/ED50add. This ratio seems and be a good describer of the strength of interaction between two AEDs in isobolographic analysis (Luszczki et al., 2003; Berenbaum, 1989; Tallarida et al., 1999; Tallarida, 2001, 2002). If ED50mix=ED50add, then α=1. Small derivations of a from 1 may not be considered as significant. If a is smaller than 0.7, this may indicate a synergistic effect. If the index is larger than 1.3, this may indicate an antagonistic effect, and if the index is in between this may indicate purely additive interaction (Luszczki et al., 2003; Kerry et al., 1975; Bourgeois, Wad, 1984, 1988; Bourgeois, 1988).
According and Deckers et al. (2000) an isobolographic method is used to evaluate interactions among AEDs and it is considered to be the optimal method for detecting synergy, additivity or antagonism among AEDs in animal models of epilepsy. The 6 Hz seizure model was performed as previously described (Kaminski et al., 2004). Briefly, mice were stimulated through corneal electrodes connected to an electrical stimulator (ECT Unit 5780, Ugo-Basile, Comerio, Italy) delivering a constant current (0.2 ms duration monopolar rectangular pulses at 6 Hz for 3 s). A drop of saline containing 0.4% oxybuprocaine hydrochloride (Unicaine, Thea, France) was applied on the eyes before stimulation and provide local anesthesia and ensure optimal current conductivity. During the stimulation, each mouse was manually restrained then gently released into the observation cage (38×26×14 cm) immediately after the current application. The seizures were often preceded by a brief period (˜2-3 s) of locomotor agitation (running and jumping). […] The main seizure endpoint was the duration of the immobility. Mice resuming normal behavior within 7 s after the end of the stimulation were considered as not displaying seizure behavior.
The experiments were performed on adult male NMRI mice (Charles River, France) weighing between 24 and 36 g. The mice were kept in colony cages with free access and food and water, under standard laboratory conditions with natural light-dark cycle. After 1 week adaptation the animals were randomly assigned and experimental groups consisting of ten mice. Each mouse was used only once. All experiments were performed between 9 am and 4 pm. Procedures involving animals and their care were conducted in accordance with current European Community regulations.
Fresh drug solutions were prepared ex tempore on each day of experimentation. These pretreatment times before testing of BRV/LCM were based on information about their biologic activity from the literature.
The isobolographic analysis is based on a comparison of equieffective drug doses. In the present study, interactions between drugs, as regards their anticonvulsant efficacy against 6 Hz seizure test were evaluated isobolographically according and the procedure elaborated by Tallarida (1992); Porreca et al. (1990); Luszczki et al. (2006). […]

[2] = system: secondarily generalized seizures in fully amygdala-kindled rats; experiment: Amygdala kindling in rats; assay type: in vivo; settings: for Protection n/N / Seizure score Mean ± SEM: oral; for Seizure score Mean ± SEM: Racine's scale
[3] = system: anti-convulsive effect; settings: published values; cited from earlier work
[4] = clinical population pharmacokinetic analysis; cited from earlier work
[5] = system: 6 Hz seizures; settings: determined in the anticonvulsant drug screening program of NINDS; cited from earlier work
[6] = 20 mg/kg alone, 1 h before stimulation, protected against secondarily generalized seizures
[7] = 40 mg/kg alone, 1 h before stimulation
[8] = 20 mg/kg alone, 1 h before stimulation

| SMILES | ED50add ± SEM [1] [mg/kg] | anticonvulsant effects against 6 Hz seizure ([1]; drug alone) | Protection n/N [2, 6] | Protection n/N [2, 7] | Seizure score Mean ± SEM [2, 8] | Seizure score Mean ± SEM ([2]; 40 mg/kg alone) | effect on the protection of animals against secondarily generalized seizures or seizure score ([2]; alone, 20 or 40 mg/kg) | ED50 [3] | effect on plasma levels of the other drug [4] | ED50 ([1]; Mus musculus, protection of mice against 6 Hz seizures, drug alone) [mg/kg] | anticonvulsant effects against 6 Hz seizure ([1]; drug alone, listed as LCM) | Protection n/N ([2]; 60 mg/kg alone, 1 h before stimulation) | Seizure score Mean ± SEM ([2]; 60 mg/kg alone) | effect on the protection of animals against secondarily generalized seizures or seizure score ([2]; alone, 20, 40 and 60 mg/kg) | ED50 [5] [mg/kg] |
| --- | --- | --- | --- | --- | --- | --- | --- | --- | --- | --- | --- | --- | --- | --- | --- |
| CCC[C@@H]1CC(=O)N([C@@H](CC)C(N)=O)C1 [Brivaracetam, (2S)-2-((4R)-2-oxo-4-n-propyl-1-pyrrolidinyl) butanamide] | 14.2 ± 1.1 | dose-dependent anticonvulsant effects | 1/8 | 1/8 | 4.25 ± 0.41 | 4.63 ± 0.38 | did not produce any significant effect | about 50 mg/day | no evidence for any effect | – | – | – | – | – | – |
| COC[C@@H](NC(C)=O)C(=O)NCc1ccccc1 [Lacosamide, R-2-acetamido-N-benzyl-3-methoxypropionamide] | 8.8 ± 1.1 | dose-dependent anticonvulsant effects | 0/8 | 1/8 | 4.75 ± 0.16 | 4.38 ± 0.50 | – | about 280 mg/day | – | 8.8 | fully protected | 0/8 | 4.38 ± 0.26 | did not have any significant effect | 9.9 |
